# Laboratory results published in patent publication US5684222A (priority 1994, dated 1997).
# Test system: TNFRp55+/+ mice
# Conditions: mouse, in vivo
smiles,measurement,value
"N[C@H]1C(O)O[C@H](CO)[C@H](O)[C@@H]1O (stereo partly drawn) [D-Gal, D-galactosamine]",TNFRp55 +/+ dead/group,0/4
